Results: paper PMC12114375, “Discovery of Hydrazineyl Amide Derivative of Pseudolaric Acid B for Reprogramming Tumor-Associated Macrophages Against Tumor Growth” (Molecules, 2025)

Assays:
[1] = tested on: M2-like polarization of BMDMs (CD206, CD86); experiment: Macrophage phenotype analysis by flow cytometry (CD206, CD86) in BMDMs; assay type: cell-based, mouse; settings: CSF-1-differentiated BMDMs, IL-4 and IL-13, 48 h, different concentrations
Experimental: We also extended the test to primary murine macrophages derived from bone marrow (BMDMs), which were cultured in vitro with recombinant mouse M-CSF for 6 days. The BMDMs were then stimulated with IL-4/IL-13, leading to their transformation into M2-like pro-tumoral macrophages. This transformation was characterized by an increase in both ARG1 and CD206 expression and a decrease in both NOS2 and MHC II expression. […] Subsequently, we assessed the capacity of compound 12 to inhibit the M2-like polarization of macrophages using CSF-1-differentiated mouse BMDMs. These cells were treated with IL-4 and IL-13 for 48 h, and the expression levels of CD206, an M2-type marker, and CD86, an M1-type marker, were analyzed via flow cytometry. […]
BMDMs were collected and stained with a fluorescent antibody or the matching isotype controls for 30 min at room temperature and then tested using a BD CytoFLEX LX (Beckman, CA, USA). […] Data were analyzed using FlowJo10.4 software.
Figure 2 Compound 12 inhibits the M2-like polarized phenotype of macrophages. […] The expression levels of the markers CD206 and CD86 on induced macrophages were determined by flow cytometry, and the mean fluorescence intensity (MFI) was analyzed with FlowJo (C), or the cells were lysed and immunoblotted to detect the indicated proteins (D). […]

[2] = tested on: ARG1 protein expression in BMDMs; experiment: Western blot of ARG1 protein in macrophages; assay type: cell-based, mouse; settings: CSF-1-differentiated BMDMs, IL-4 and IL-13, 48 h, different concentrations
Experimental: We also extended the test to primary murine macrophages derived from bone marrow (BMDMs), which were cultured in vitro with recombinant mouse M-CSF for 6 days. The BMDMs were then stimulated with IL-4/IL-13, leading to their transformation into M2-like pro-tumoral macrophages. This transformation was characterized by an increase in both ARG1 and CD206 expression and a decrease in both NOS2 and MHC II expression. […] Subsequently, we assessed the capacity of compound 12 to inhibit the M2-like polarization of macrophages using CSF-1-differentiated mouse BMDMs. These cells were treated with IL-4 and IL-13 for 48 h, and the expression levels of CD206, an M2-type marker, and CD86, an M1-type marker, were analyzed via flow cytometry.
Total cellular protein was extracted using a 1 × SDS lysis buffer and denatured at 100 °C for 15 min. […]
Figure 2 Compound 12 inhibits the M2-like polarized phenotype of macrophages. […] The expression levels of the markers CD206 and CD86 on induced macrophages were determined by flow cytometry, and the mean fluorescence intensity (MFI) was analyzed with FlowJo (C), or the cells were lysed and immunoblotted to detect the indicated proteins (D). […] Data are represented as means ± SD. ^### p < 0.001 vs. non-stimulated control group, * p < 0.05, ** p < 0.01, *** p < 0.001 vs. stimulated control group. p-values were determined using one-way ANOVA.

COC(=O)C1=CC[C@@]23CC[C@@H]([C@@](C)(/C=C/C=C(\C)C(=O)NNCCO)OC2=O)[C@@]3(OC(C)=O)CC1 [compound 12, Methyl(3R,4S,4aS,9aR)-4a-acetoxy-3-((1E,3E)-5-(2-(2-hydroxyethyl)hydrazineyl)-4-methyl-5-oxopenta-1,3-dien-1-yl)-3-methyl-1-oxo-3,4,4a,5,6,9-hexahydro-1H-4,9a-ethanocyclohepta[c]pyran-7-carboxylate]
CD86 expression (MFI, flow cytometry) [1]: increase in CD86 expression
CD206 expression (MFI, flow cytometry) [1]: decrease in CD206 expression
ARG1 protein expression (Western blot) [2]: potent inhibitory activity at the protein level
